Reference: paper PMC3863970 (Nature Communications, 2013)
“Also recorded” adds a separate entry of the source.

Tests used:
rSH/1 virus = tested on: rSH/1 virus; design: species or system influenza A(H7N9) virus; conditions: in vivo
rSH/1:AH/1-NA virus = tested on: rSH/1:AH/1-NA virus; design: species or system influenza A(H7N9) virus; conditions: in vivo

Row | SMILES | viral lung titres compared with mice treated with vehicle only (rSH/1 virus) | viral lung titres compared with mice treated with vehicle only (rSH/1:AH/1-NA virus) | effect on viral lung titres (rSH/1 virus; po) | reduction in viral lung titres (rSH/1:AH/1-NA virus; po)
1 | CC(=O)N[C@H]1[C@H]([C@H](O)[C@H](O)CO)OC(C(=O)O)=C[C@@H]1N=C(N)N [Zanamivir, zanamivir] | significantly reduced | significantly reduced |  | 
2 | CCOC(=O)C1=C[C@@H](OC(CC)CC)[C@H](NC(C)=O)[C@@H](N)C1 [Oseltamivir, oseltamivir] |  |  | no effect; also recorded: does not suppress H7N9 virus replication | 1 log
